Laboratory results: patent publication US20090192327A1, “METHODS AND COMPOSITIONS FOR INHIBITING BIOFILMS” (Sequoia Sciences, Inc., priority 2004, published 2009)
Values joined by “and” are separate entries in the source; they are usually repeats but may differ in a detail not shown here. Equal values may be shown once. Read-outs that look alike come from different tables or passages of the source.

Legend:
[1] = system: Pseudomonas aeruginosa; test: Minimum inhibitory concentration (NCCLS broth microdilution); assay type: cell-based; settings: LB media with 0.2% glucose; 35° C. for 20-24 hours
Procedure: The minimum inhibitory concentrations (MICs) for several of the specific biofilm inhibitors described herein were determined against several targets, including P. aeruginosa, E. coli, and Staphylococcus aureus. The MICs of the biofilm inhibitors were measured using the reference broth microdilution method recommended by the National Committee for Clinical Laboratory Standards (NCCLS). […] In each assay, positive and negative controls were employed, wherein the positive control included an antimicrobial agent with a known potency range that was used to ensure proper assay performance. The negative control, generally, included the solvent in which the test compounds were dissolved. In this example, the wells correlating to the negative controls included ethanol (without any biofilm inhibitors). […] Thus, each well contained a final volume of approximately 200 μl (not including the volume of the concentrated inhibitor). […] After bacterial inoculation and loading of test and control samples, the plate was incubated in an ambient air environment at 35° C. for 20-24 hours. The plate was subsequently rinsed, stained, and analyzed in accordance with the procedures described in Example 1. […] The minimum inhibitory concentrations were calculated as the lowest inhibitor concentration at which biofilm inhibition was observed.

[2] = system: Pseudomonas aeruginosa; test: Microtiter plate biofilm inhibition assay (crystal violet); assay type: cell-based; settings: 10 μg/ml; LB media with 0.2% glucose; 24 hours at room temperature; average of three wells
Procedure: A microtiter plate assay was used to quantitatively measure the effect each tested compound had on the ability of bacteria to form a biofilm. In this example, a concentrated solution of each compound tested was loaded separately into three separate wells of a polystyrene microtiter plate. In addition, each assay included triplicate wells correlating to negative and positive controls. For the positive controls, biofilm inhibitors of known activity were used, whereas no inhibitors were added to wells correlating to negative controls. […] Thus, each well contained a final volume of approximately 200 μl (not including the volume of the concentrated inhibitor). […] The microtiter plates were then placed on a shaker for 24 hours at room temperature. After the 24 hour incubation period, the microtiter plate was removed from the shaker, rinsed, and stained. During the rinsing step, the test compound, media, and bacterial inoculum solution was drained from the plate, approximately 300 μl of 0.1M phosphate buffered saline (PBS) was added to each well, which was subsequently drained from the plate. The rinsing step removed any suspended cells from the assay. 0.1% crystal violet stain was added to each well for approximately 20 minutes. Next, the crystal violet solution was drained from the microtiter plate. The plate was rinsed with PBS as described above four (4) times to remove any excess stain from the plate. Following the PBS rinsing steps, the plate was eluted with 250 μl/well of ethanol, which improved the detection of the stain. The plate was immediately analyzed spectrophotometrically at 540 nm using a microtiter plate reader. The inhibitory effect each compound had on the bacteria's ability to form a biofilm on the surface of each well was determined as follows: The absorbance values observed for each set of three (3) wells correlating with a test compound or control were averaged. The average absorbance value for each test compound was compared to the average absorbance value of the negative control (the positive control was employed to verify proper assay function). In general, biofilm inhibition activity is inversely proportional to absorbance values, whereby, for example, low absorbance values correlate with significant inhibition activity and high absorbance values correlate with small or no inhibition activity. The approximate percent inhibition observed for each compound was calculated by comparing the average absorbance value for each test compound to the average absorbance value for the negative controls. Table 2 summarizes the average percent inhibition observed for the tested compounds listed against biofilms generated by Pseudomonas aeruginosa.

[3] = system: Staphylococcus aureus; test: Minimum inhibitory concentration (NCCLS broth microdilution); assay type: cell-based; settings: LB media with 0.2% glucose; 35° C. for 20-24 hours
Procedure: (§1) The minimum inhibitory concentrations (MICs) for several of the specific biofilm inhibitors described herein were determined against several targets, including P. aeruginosa, E. coli, and Staphylococcus aureus. The MICs of the biofilm inhibitors were measured using the reference broth microdilution method recommended by the National Committee for Clinical Laboratory Standards (NCCLS).
(§2) […]. The negative control, generally, included the solvent in which the test compounds were dissolved. In this example, the wells correlating to the negative controls included ethanol (without any biofilm inhibitors).
(§3) In this example, 150 μl of sterile media was added to each well (LB media with 0.2% glucose), along with appropriate volumes of concentrated solutions of the inhibitors to be tested, followed by 50 μl of bacterial inoculum. Thus, each well contained a final volume of approximately 200 μl (not including the volume of the concentrated inhibitor). […]. The plate was subsequently rinsed, stained, and analyzed in accordance with the procedures described in Example 1.
(§4) Tables 7, 8, and 9 summarize the data observed and, specifically, the MICs calculated for the several compounds referenced therein against P. aeruginosa, E. coli, and S. aureus, respectively. The minimum inhibitory concentrations were calculated as the lowest inhibitor concentration at which biofilm inhibition was observed.

[4] = system: P. aeruginosa; settings: 10 μg/mL
Procedure: In general, flow cell analysis begins by inoculating a microorganism into test and control flow cells along with the appropriate growth media (which may vary depending upon the organism involved). The microorganisms are maintained in the flow cells until they have produced biofilms having the desired coverage and thickness. Thereafter, the test flow cells are treated with appropriate concentrations of test inhibitors. […] Such negative controls may be used as reference points when measuring biofilm inhibition activity.
After the appropriate flow cells are treated with the test inhibitors, Live/Dead stain is applied to each flow cell for approximately 45 minutes. Any currently-available Live/Dead stain may be employed in this procedure, such as LIVE BacLight™ Bacterial Gram stain (Molecular Probes, Inc., Eugene, Oreg., USA). The biofilm is subsequently rinsed with sterile media to remove excess stain, and the sample is transferred to a confocal microscope for imaging. The Live/Dead stain differentially stains the bacterial cells with green for Live and red for Dead. In a flow cell environment, it is generally understood that bacteria require the presence of biofilms to propagate. Accordingly, the activity of a biofilm inhibitor may be indirectly measured by comparing the number of live bacterial cells included in a flow cell that contained a test inhibitor to that of a negative control.
The negative control flow cells included the inoculum in LB media with 0.2% glucose without any inhibitors. […] The test and control cells were subsequently stained and analyzed as described above.
In this example, the number of live colony forming units (CFU) detected in the sample flow cells were compared to that of the negative control to indirectly measure biofilm inhibition.

[5] = system: Escherichia coli; test: Minimum inhibitory concentration (NCCLS broth microdilution); assay type: cell-based; settings: LB media with 0.2% glucose; 35° C. for 20-24 hours
Procedure: as §1, §2, §3, §4

[6] = system: Pseudomonas aeruginosa strain PAO 1; test: Rotating disk reactor biofilm test in combination with tobramycin; assay type: cell-based; settings: 48 hours biofilm; compound 110 approximately 100 μg/mL for 24 hours; tobramycin 100 μg/mL for two hours; polystyrene coupons
Procedure: In this example, compound 110 was tested for biofilm inhibition with Pseudomonas aeruginosa in combination with Tobramycin. Specifically, biofilm formation of P. aeruginosa was evaluated using a standardized biofilm method with a rotating disk reactor (RDR), which is also known as “ASTM Standard Method #E-2196-02.” The rotating disk reactor consisted of a one-liter glass beaker fitted with a drain spout. The bottom of the vessel contained a magnetically driven rotor with six 1.27 cm diameter coupons constructed from polystyrene. The rotor consisted of a star-head magnetic stir bar upon which a disk was affixed to hold the coupons. The vessel (with the stir bar) was placed on a stir plate and rotated to provide fluid shear. A nutrient solution (AB Trace Medium with 0.3 mM glucose, see Table 5 below for specific formulation) was added through a stopper in the top of the reactor at a flow rate of 5 mL/min. The reactor volume was approximately 180 mL. At a volume of 180 mL, the residence time of the reactors was 36 minutes. The reactors were operated at room temperature (c.a. 26° C.). In this example, two RDRs were operated in parallel with one receiving compound 110 and the other serving as an untreated control. […] The plates were incubated for 24 hours at 37° C. before colony forming units (CFU) were determined.

[7] = live CFU compared to negative control flow cell

Row | MIC (μg/mL) - Pseudomonas aeruginosa [1] | Compound | Biofilm Inhibition- Pseudomonas aeruginosa [2] | other results
1 | >10 µg/mL | C[C@H]1[C@H](CO)C[C@@H](C(=O)O)C2CC[C@]3(C)C(=CCC4[C@@]5(C)CC[C@H](O)C(C)(C)C5CC[C@]43C)[C@@H]21 (some centres unmarked) [Compound 99] | 30% | MIC (μg/mL) - Staphylococcus aureus [3]: >32 µg/mL
2 | >10 µg/mL | CC1(C)C[C@@H](C(=O)O)C2CCC3C(=CCC4C3(C)CCC3C4(C)C[C@@H](O)[C@H](O)C3(C)C)[C@@H]2C1 (some centres unmarked) [Compound 107] | 46% | –
3 | >10 µg/mL | C[C@H]1[C@H](C)CC[C@]2(C(=O)O)CCC3C(=CCC4[C@@]3(C)CCC3C(C)(C)[C@@H](OC(=O)/C=C/c5ccc(O)cc5)[C@H](O)C[C@@]34C)[C@H]12 (some centres unmarked) [Compound 189] | 35% | –
4 | >10 µg/mL | C[C@@H]1C[C@@H](C(=O)O)C2CC[C@]3(C)C(=CCC4[C@@]5(C)C[C@@H](O)[C@H](O)C(C)(C)C5CC[C@]43C)[C@@H]2[C@]1(C)O (some centres unmarked) [Compound 192] | 32% | –
5 | >10 µg/mL | C[C@@H]1[C@H]2C3=CCC4[C@@]5(C)CC[C@H](O)C(C)(C)C5CC[C@@]4(C)[C@]3(C)CC[C@@]2(C(=O)O)CC[C@]1(C)O (some centres unmarked) [Compound 195] | 25% | MIC (μg/mL) - Staphylococcus aureus [3]: >8 µg/mL
6 | >10 µg/mL | C[C@@H]1CC[C@]2(C(=O)O)CC[C@]3(C)C(=CCC4[C@@]5(C)C[C@@H](O)[C@H](O)C(C)(C)C5CC[C@]43C)[C@@H]2[C@]1(C)O (some centres unmarked) [Compound 203] | 43% | –
7 | – | CC1(C)CC[C@]2(C(=O)O)CC[C@]3(C)C(=CC[C@@H]4[C@@]5(C)CC[C@H](O)C(C)(C)[C@@H]5CC[C@]43C)[C@@H]2C1 [Compound 225] | – | MIC (μg/mL) - Escherichia coli [5]: >10 µg/mL
8 | – | NC[C@H]1O[C@H](O[C@H]2[C@H](O)[C@@H](O[C@H]3O[C@H](CO)[C@@H](O)[C@H](N)[C@H]3O)[C@H](N)C[C@@H]2N)[C@H](N)C[C@@H]1O [Tobramycin, reference compound] | – | CFU (in log 10) [6]: 6.1 CFU (in log 10)

Row | Compound | MIC (μg/mL) - Pseudomonas aeruginosa [1] | Biofilm Inhibition- Pseudomonas aeruginosa [2] | other results
9 | C[C@@H]1[C@H]2C3=CC[C@@H]4[C@@]5(C)CC[C@H](OC(=O)/C=C\c6ccc(O)cc6)C(C)(C)[C@@H]5CC[C@@]4(C)[C@]3(C)CC[C@@]2(C(=O)O)CC[C@]1(C)O (relative stereo) [Compound 188, 3β-O-cis-p-coumaroyl-20β-hydroxy-12-ursen-28-oic acid] | >10 µg/mL | – | –
10 | COc1cc(/C=C/C(=O)OC2C(O)CC3(C)C(CCC4(C)C3CC=C3C5C(C)C(C)CCC5(C(=O)O)CCC34C)C2(C)C)ccc1O (stereo not drawn) [Compound 116, 3α-O-trans-feruloyl-2α-hydroxy-12-ursen-28-oic acid] | >10 µg/mL | – | Flow Cell with Compound 116 (CFU), Average ([4]; LB media with 0.2% glucose, applied approximately 4 hours after inoculum, average): 1.76E+06 CFU; Flow Cell with Compound 116 (CFU), single flow cell ([4]; LB media with 0.2% glucose, applied approximately 4 hours after inoculum, individual values): 2.06E+06 CFU and 1.46E+06 CFU; Log Reduction [4, 7]: 0.28; Percent Reduction [4, 7]: 47%; Percent Reduction ([4]; live CFU compared to negative control flow cell, listed as compound 116): ~47%
